Measured values as given in ChEMBL document CHEMBL3885881, “DrugMatrix”.

Species on record: Rattus norvegicus
Assay: DrugMatrix - Regimen: Daily Repeat
Assay type: toxicity, organism-based, Sprague-Dawley
Parameters: regimen Daily Repeat, gender Male, age 6-8 weeks
Settings: in vivo, po, 0 mg/kg, route oral GAVAGE, dose level Control, vehicle 100 % WATER; for BASOPHIL / EOSINOPHIL / ERYTHROCYTE COUNT / HEMATOCRIT / HEMOGLOBIN / LEUKOCYTE COUNT / LYMPHOCYTE / MEAN CORPUSCULAR HEMOGLOBIN / MEAN CORPUSCULAR HEMOGLOBIN CONCENTRATION / MEAN CORPUSCULAR VOLUME / MONOCYTE / NEUTROPHIL / PLATELET COUNT: tissue Blood; for ALANINE AMINOTRANSFERASE / ALBUMIN / ALKALINE PHOSPHATASE / ASPARTATE AMINOTRANSFERASE / BLOOD UREA NITROGEN / CARBON DIOXIDE / CHLORIDE / CHOLESTEROL / CREATINE PHOSPHOKINASE / CREATININE / GLUCOSE / LACTATE DEHYDROGENASE / LIPASE / PHOSPHORUS / POTASSIUM / SODIUM / TOTAL BILIRUBIN / TOTAL PROTEIN / URIC ACID: tissue Plasma

## O=[Se](=O)([O-])[O-].[Na+].[Na+] [SODIUM SELENATE]
96 h, time 4 day
  BASOPHIL: 0.47%
  EOSINOPHIL: 0.58%
  ERYTHROCYTE COUNT: 6.84 x10E6/uL
  HEMATOCRIT: 44.27%
  HEMOGLOBIN: 14.08 G/DL
  LEUKOCYTE COUNT: 13.39 x10E3/uL
  LYMPHOCYTE: 83.57%
  MEAN CORPUSCULAR HEMOGLOBIN: 20.57 pg
  MEAN CORPUSCULAR HEMOGLOBIN CONCENTRATION: 31.77 G/DL
  MEAN CORPUSCULAR VOLUME: 64.68 fL
  MONOCYTE: 1.92%
  NEUTROPHIL: 12.95%
  PLATELET COUNT: 1533.67 x10E3/uL
  ALANINE AMINOTRANSFERASE: 28.17 u/L
  ALBUMIN: 3.82 G/DL
  ALKALINE PHOSPHATASE: 354.33 u/L
  ASPARTATE AMINOTRANSFERASE: 73.83 u/L
  BLOOD UREA NITROGEN: 16 mg/dL
  CARBON DIOXIDE: 27.17 mmol/L
  CHLORIDE: 104.83 MEQ/L
  CHOLESTEROL: 83.33 mg/dL
  CREATINE PHOSPHOKINASE: 288 u/L
  CREATININE: 0.33 mg/dL
  GLUCOSE: 181.33 mg/dL
  LACTATE DEHYDROGENASE: 173.17 u/L
  LIPASE: 17.67 u/L
  PHOSPHORUS: 11.5 mg/dL
  POTASSIUM: 6.8 MEQ/L
  SODIUM: 147 MEQ/L
  TOTAL BILIRUBIN: 0.35 mg/dL
  TOTAL PROTEIN: 6.35 G/DL
  URIC ACID: 1.55 mg/dL
[…], time 6 day
  BASOPHIL: 0.33%
  EOSINOPHIL: 0.85%
  ERYTHROCYTE COUNT: 6.98 x10E6/uL
  HEMATOCRIT: 38.58%
  HEMOGLOBIN: 14.25 G/DL
  LEUKOCYTE COUNT: 11.01 x10E3/uL
  LYMPHOCYTE: 85.07%
  MEAN CORPUSCULAR HEMOGLOBIN: 20.47 pg
  MEAN CORPUSCULAR HEMOGLOBIN CONCENTRATION: 31.45 G/DL
  MEAN CORPUSCULAR VOLUME: 64.9 fL
  MONOCYTE: 1.9%
  NEUTROPHIL: 11.42%
  PLATELET COUNT: 1289.67 x10E3/uL
  ALANINE AMINOTRANSFERASE: 28.17 u/L
  ALBUMIN: 3.78 G/DL
  ALKALINE PHOSPHATASE: 385.33 u/L
  ASPARTATE AMINOTRANSFERASE: 78 u/L
  BLOOD UREA NITROGEN: 16.83 mg/dL
  CARBON DIOXIDE: 26.67 mmol/L
  CHLORIDE: 106.83 MEQ/L
  CHOLESTEROL: 82.67 mg/dL
  CREATINE PHOSPHOKINASE: 225.5 u/L
  CREATININE: 0.27 mg/dL
  GLUCOSE: 179.5 mg/dL
  LACTATE DEHYDROGENASE: 98.33 u/L
  LIPASE: 14.67 u/L
  PHOSPHORUS: 12.28 mg/dL
  POTASSIUM: 7.03 MEQ/L
  SODIUM: 150.33 MEQ/L
  TOTAL BILIRUBIN: 0.38 mg/dL
  TOTAL PROTEIN: 6.45 G/DL
  URIC ACID: 1.6 mg/dL
[…], time 14 day
  BASOPHIL: 0.52%
  EOSINOPHIL: 0.55%
  ERYTHROCYTE COUNT: 7.72 x10E6/uL
  HEMATOCRIT: 51.87%
  HEMOGLOBIN: 15.32 G/DL
  LEUKOCYTE COUNT: 16.2 x10E3/uL
  LYMPHOCYTE: 85.13%
  MEAN CORPUSCULAR HEMOGLOBIN: 19.85 pg
  MEAN CORPUSCULAR HEMOGLOBIN CONCENTRATION: 29.52 G/DL
  MEAN CORPUSCULAR VOLUME: 67.17 fL
  MONOCYTE: 1.7%
  NEUTROPHIL: 11.6%
  PLATELET COUNT: 1104.17 x10E3/uL
  ALANINE AMINOTRANSFERASE: 37 u/L
  ALBUMIN: 4.13 G/DL
  ALKALINE PHOSPHATASE: 342 u/L
  ASPARTATE AMINOTRANSFERASE: 71 u/L
  BLOOD UREA NITROGEN: 16.5 mg/dL
  CARBON DIOXIDE: 28.17 mmol/L
  CHLORIDE: 104 MEQ/L
  CHOLESTEROL: 70.67 mg/dL
  CREATINE PHOSPHOKINASE: 287.67 u/L
  CREATININE: 0.38 mg/dL
  GLUCOSE: 150.17 mg/dL
  LACTATE DEHYDROGENASE: 81.33 u/L
  LIPASE: 16 u/L
  PHOSPHORUS: 11.32 mg/dL
  POTASSIUM: 6.22 MEQ/L
  SODIUM: 147.33 MEQ/L
  TOTAL BILIRUBIN: 0.43 mg/dL
  TOTAL PROTEIN: 6.55 G/DL
  URIC ACID: 1.38 mg/dL
